Laboratory results taken from BindingDB's records for doi:10.1021/jm701348d (Inspire Pharmaceuticals, 2008).
Values joined by “and” are separate entries in the source; they are usually repeats but may differ in a detail not shown here. Equal values may be shown once.

Experiment: Antagonist activity at P2Y12 receptor assessed as inhibition of ADP-induced human platelet aggregation by washed platelet assay

O=c1ccn([C@@H]2O[C@H](COP(=O)(O)OP(=O)(O)OP(=O)(O)OP(=O)(O)OC[C@@H]3O[C@H](n4ccc(=O)[nH]c4=O)[C@H]4OC(/C=C/c5ccccc5)O[C@H]43)[C@H]3OC(/C=C/c4ccccc4)O[C@H]32)c(=O)[nH]1 (some centres not stated)
IC50: 3.3 µM

CCCCCCNC(=O)Nc1ncnc2c1ncn2[C@@H]1O[C@H](COP(=O)(O)O)[C@H]2OC(/C=C/c3ccccc3)O[C@H]21 (some centres not stated)
IC50: 0.237 µM

Nc1ncnc2c1ncn2[C@@H]1O[C@H](COP(=O)(O)O)[C@H]2OC(/C=C/c3ccccc3)O[C@H]21 (some centres not stated)
IC50: 45.1 µM

O=C(Nc1ccc(F)cc1)Nc1ccn([C@@H]2O[C@H](COP(=O)(O)O)[C@H]3O[C@@H](Cc4ccccc4)O[C@H]32)c(=O)n1
IC50: 11.2 µM

O=C(Nc1ccccc1)Nc1ncnc2c1ncn2[C@@H]1O[C@H](COP(=O)(O)OP(=O)(O)OP(=O)(O)OP(=O)(O)OC[C@@H]2O[C@H](n3cnc4c(NC(=O)Nc5ccccc5)ncnc43)[C@H]3O[C@@H](Cc4ccccc4)O[C@H]32)[C@H]2O[C@@H](Cc3ccccc3)O[C@H]21
IC50: 0.522 µM

O=c1ccn([C@@H]2O[C@H](COP(=O)(O)OP(=O)(O)OP(=O)(O)OP(=O)(O)OC[C@@H]3O[C@H](n4ccc(=O)[nH]c4=O)[C@@H](O)[C@H]3O)[C@@H]3OC(Cc4ccccc4)O[C@H]32)c(=O)[nH]1 (some centres not stated)
IC50: 27.1 µM

O=C(Nc1ccccc1)Nc1ncnc2c1ncn2[C@@H]1O[C@H](COP(=O)(O)O)[C@H]2OC(C#Cc3ccccc3)O[C@H]21 (some centres not stated)
IC50: 0.288 µM

O=C(Nc1ccccc1)Nc1ncnc2c1ncn2[C@@H]1O[C@H](COP(=O)(O)O)[C@H]2OC(/C=C/c3ccccc3)O[C@H]21 (some centres not stated)
IC50: 0.21 µM

Nc1ncnc2c1ncn2[C@@H]1O[C@H](COP(=O)(O)O)[C@H]2OC(C#Cc3ccccc3)O[C@H]21 (some centres not stated)
IC50: 57.1 µM

CCNC(=O)Nc1ncnc2c1ncn2[C@@H]1O[C@H](COP(=O)(O)O)[C@H]2OC(c3ccccc3)O[C@H]21 (some centres not stated)
IC50: 0.013 µM

O=C(Nc1ccc(F)cc1)Nc1ccn([C@@H]2O[C@H](COP(=O)(O)OP(=O)(O)OP(=O)(O)OP(=O)(O)OC[C@@H]3O[C@H](n4ccc(=O)[nH]c4=O)[C@@H](O)[C@H]3O)[C@H]3O[C@@H](Cc4ccccc4)O[C@H]32)c(=O)n1
IC50: 12.9 µM

O=C(Nc1ccccc1)Nc1ncnc2c1ncn2[C@@H]1O[C@H](COP(=O)(O)O)[C@H]2OC(Cc3ccccc3)O[C@H]21 (some centres not stated)
IC50: 0.16 µM

O=c1ccn([C@@H]2O[C@H](COP(=O)(O)OP(=O)(O)OP(=O)(O)OC[C@@H]3O[C@H](n4ccc(=O)[nH]c4=O)[C@H]4OC(Cc5ccccc5)O[C@H]43)[C@H]3OC(Cc4ccccc4)O[C@H]32)c(=O)[nH]1 (some centres not stated)
IC50: 4.63 µM

O=c1ccn([C@@H]2O[C@H](COP(=O)(O)OP(=O)(O)OP(=O)(O)OP(=O)(O)OC[C@@H]3O[C@H](n4ccc(=O)[nH]c4=O)[C@H]4OC(Cc5ccccc5)O[C@H]43)[C@H]3OC(Cc4ccccc4)O[C@H]32)c(=O)[nH]1 (some centres not stated)
IC50: 1.82 µM

CCCCCCNC(=O)Nc1ncnc2c1ncn2[C@@H]1O[C@H](COP(=O)(O)O)[C@H]2OC(C#Cc3ccccc3)O[C@H]21 (some centres not stated)
IC50: 0.211 µM

CCCCCCCC1O[C@@H]2[C@H](O1)[C@@H](COP(=O)(O)OP(=O)(O)OP(=O)(O)OP(=O)(O)OC[C@@H]1O[C@H](n3ccc(=O)[nH]c3=O)[C@@H](O)[C@H]1O)O[C@H]2n1ccc(=O)[nH]c1=O (some centres not stated)
IC50: 16.9 µM

O=c1ccn([C@@H]2O[C@H](COP(=O)(O)OP(=O)(O)OP(=O)(O)OP(=O)(O)OC[C@@H]3O[C@H](n4ccc(=O)[nH]c4=O)[C@@H](O)[C@H]3O)[C@@H]3OC(c4ccccc4)O[C@H]32)c(=O)[nH]1 (some centres not stated)
IC50: 16.7 µM

CCNC(=O)Nc1ncnc2c1ncn2[C@@H]1O[C@H](COP(=O)(O)O)[C@H]2OC(Cc3ccccc3)O[C@H]21 (some centres not stated)
IC50: 0.041 µM

CCCCCCCC1O[C@@H]2[C@H](O1)[C@@H](COP(=O)(O)OP(=O)(O)OP(=O)(O)OP(=O)(O)OC[C@@H]1O[C@H](n3ccc(=O)[nH]c3=O)[C@H]3OC(CCCCCCC)O[C@H]31)O[C@H]2n1ccc(=O)[nH]c1=O (some centres not stated)
IC50: 10.7 µM

O=C(Nc1ccccc1)Nc1ncnc2c1ncn2[C@@H]1O[C@H](COP(=O)(O)OP(=O)(O)O)[C@H]2O[C@@H](Cc3ccccc3)O[C@H]21
IC50: 0.052 µM

O=C(Nc1ccccc1)Nc1ncnc2c1ncn2[C@@H]1O[C@H](COP(=O)(O)O)[C@@H](O)[C@H]1O
IC50: 3.11 µM

O=c1ccn([C@@H]2O[C@H](COP(=O)(O)OP(=O)(O)OP(=O)(O)OP(=O)(O)OC[C@@H]3O[C@H](n4ccc(=O)[nH]c4=O)[C@@H](O)[C@H]3O)[C@H]3OC(/C=C/c4ccccc4)O[C@H]32)c(=O)[nH]1 (some centres not stated)
IC50: 8.68 µM and 8.8 µM

Nc1ncnc2c1ncn2[C@@H]1O[C@H](COP(=O)(O)OP(=O)(O)OP(=O)(O)OP(=O)(O)OC[C@@H]2O[C@H](n3cnc4c(N)ncnc43)[C@@H](O)[C@H]2O)[C@H]2OC(Cc3ccccc3)O[C@H]21 (some centres not stated)
IC50: 6.54 µM

Nc1ncnc2c1ncn2[C@@H]1O[C@H](COP(=O)(O)OP(=O)(O)OP(=O)(O)OP(=O)(O)OC[C@@H]2O[C@H](n3cnc4c(N)ncnc43)[C@H]3OC(Cc4ccccc4)O[C@H]32)[C@H]2OC(Cc3ccccc3)O[C@H]21 (some centres not stated)
IC50: 11.7 µM

O=C(Nc1ccc(F)cc1)Nc1ccn([C@@H]2O[C@H](COP(=O)(O)OP(=O)(O)OP(=O)(O)OP(=O)(O)OC[C@@H]3O[C@H](n4ccc(=O)[nH]c4=O)[C@H]4O[C@@H](Cc5ccccc5)O[C@H]43)[C@@H](O)[C@H]2O)c(=O)n1
IC50: 23.9 µM

O=c1ccn([C@@H]2O[C@H](COP(=O)(O)OP(=O)(O)OP(=O)(O)OC[C@@H]3O[C@H](n4ccc(=O)[nH]c4=O)[C@@H](O)[C@H]3O)[C@H]3OC(Cc4ccccc4)O[C@H]32)c(=O)[nH]1 (some centres not stated)
IC50: 34.7 µM

CCCCCCNC(=O)Nc1ncnc2c1ncn2[C@@H]1O[C@H](COP(=O)(O)O)[C@H]2OC(Cc3ccccc3)O[C@H]21 (some centres not stated)
IC50: 0.053 µM

CNc1ccccc1C(=O)O[C@H]1[C@@H](O)[C@H](n2ccc(=O)[nH]c2=O)O[C@@H]1COP(=O)(O)OP(=O)(O)OP(=O)(O)OP(=O)(O)OC[C@@H]1O[C@H](n2ccc(=O)[nH]c2=O)[C@@H](OC(=O)c2ccccc2NC)[C@H]1O
IC50: 7.59 µM

Nc1ncnc2c1ncn2[C@@H]1O[C@H](COP(=O)(O)OP(=O)(O)O)[C@H]2O[C@@H](Cc3ccccc3)O[C@H]21
IC50: 23 µM

O=C(Nc1ncnc2c1ncn2[C@@H]1O[C@H](COP(=O)(O)O)[C@H]2OC(Cc3ccccc3)O[C@H]21)NC1CCCC1 (some centres not stated)
IC50: 0.0362 µM

O=C(Nc1ccccc1)Nc1ncnc2c1ncn2[C@@H]1O[C@H](COP(=O)(O)OP(=O)(O)O)[C@@H](O)[C@H]1O
IC50: 10.8 µM

O=c1ccn([C@@H]2O[C@H](COP(=O)(O)OP(=O)(O)OP(=O)(O)OP(=O)(O)OC[C@@H]3O[C@H](n4ccc(=O)[nH]c4=O)[C@H]4OC(c5ccccc5)O[C@H]43)[C@H]3OC(c4ccccc4)O[C@H]32)c(=O)[nH]1 (some centres not stated)
IC50: 8.29 µM
